Results taken from patent publication US20240228506A1, “RIPK1 INHIBITORS AND METHODS OF USE” (Merck Sharp & Dohme LLC, priority 2021, published 2024).

Biological target: T1, GST-RIPK1 (recombinant GST-RIPK1 kinase domain (residues 1-327)) (Homo sapiens, UniProt Q13546)
T1 construct: recombinant GST-RIPK1 kinase domain (residues 1-327) enzyme; made in house; host or cells: baculovirus-transfected Sf21 insect cells
T1 sequence (Q13546 1-327): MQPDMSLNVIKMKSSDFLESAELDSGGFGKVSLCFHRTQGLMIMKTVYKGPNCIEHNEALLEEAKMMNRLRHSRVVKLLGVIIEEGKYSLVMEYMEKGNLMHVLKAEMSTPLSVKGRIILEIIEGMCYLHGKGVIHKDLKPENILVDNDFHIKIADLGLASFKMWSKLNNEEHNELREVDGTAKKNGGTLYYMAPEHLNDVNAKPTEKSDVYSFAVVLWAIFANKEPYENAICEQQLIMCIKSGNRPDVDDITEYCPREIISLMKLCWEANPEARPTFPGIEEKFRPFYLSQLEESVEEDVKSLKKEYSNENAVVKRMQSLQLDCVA
Assay: RIPK1-ADP-Glo enzymatic assay
Format: biochemical
Settings: 25 nM GST-RIPK1, 300 μM ATP, 3 μM dephosphorylated-MBP; 30 minutes pre-incubation, 150 minutes reaction; ten-point titration
How it was run: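 Ten-point 1:3 titrations from 100000 nM, 1% DMSO, were preincubated 30 min with 25 nM GST-RIPK1 (1-327) before starting with 300 μM ATP plus 3 μM dephosphorylated MBP; 150 min reaction. ADP-Glo luminescence measured ATP-to-ADP conversion; EC50 by four-parameter sigmoidal regression.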

Row | SMILES | IC50 [nM]
1 | CC1(C(=O)N2C[C@@H]3C[C@H]2c2cncc(C#N)c2O3)CCOC1 (mixture of isomers) [Compound 1-67, (2S,5S)-4-(3-(S and R)-methyltetrahydrofuran-3-carbonyl)-2,3,4,5-tetrahydro-2,5-methanopyrido[3,4-f][1,4]oxazepine-9-carbonitrile] | 640
2 | N#Cc1cncc2c1O[C@H]1C[C@@H]2N(C(=O)C23CCC(C2)OC3)C1 (single isomer, unassigned) [Compound 1-51, (2S,5S)-4-[(S or R)-2-oxabicyclo[2.2.1]heptane-4-carbonyl]-2,3,4,5-tetrahydro-2,5-methanopyrido[3,4-f][1,4]oxazepine-9-carbonitrile] | 367
3 | CC(C)(Cc1ccccc1)C(=O)N1C[C@@H]2C[C@H]1c1cncc(C#N)c1O2 [Compound 1-68, (2S,5S)-4-(2,2-dimethyl-3-phenylpropanoyl)-2,3,4,5-tetrahydro-2,5-methanopyrido[3,4-f][1,4]oxazepine-9-carbonitrile] | 259
4 | CC(C)(C(=O)N1C[C@@H]2C[C@H]1c1cncc(C#N)c1O2)C(F)F [Compound 1-1, (2S,5S)-4-(3,3-difluoro-2,2-dimethylpropanoyl)-2,3,4,5-tetrahydro-2,5-methanopyrido[3,4-f][1,4]oxazepine-9-carbonitrile] | 32
5 | N#Cc1cncc2c1O[C@H]1C[C@@H]2N(C(=O)C2(F)CC(Oc3ccc(F)cc3F)C2)C1 (single isomer, unassigned) [Compound 1-107, (2S,5S)-4-(3-(2,4-difluorophenoxy)-1-(R or S)-fluorocyclobutane-1-carbonyl)-2,3,4,5-tetrahydro-2,5-methanopyrido[3,4-f][1,4]oxazepine-9-carbonitrile] | 23
6 | CCC(C)(C#N)C(=O)N1C[C@@H]2C[C@H]1c1cncc(C#N)c1O2 (single isomer, unassigned) [Compound 1-113, (2S,5S)-4-(2-(R or S)-cyano-2-methylbutanoyl)-2,3,4,5-tetrahydro-2,5-methanopyrido[3,4-f][1,4]oxazepine-9-carbonitrile] | 156
7 | CCC(F)(F)C(C)(C)C(=O)N1C[C@@H]2C[C@H]1c1cncc(C#N)c1O2 [Compound 1-43, (2S,5S)-4-(3,3-difluoro-2,2-dimethylpentanoyl)-2,3,4,5-tetrahydro-2,5-methanopyrido[3,4-f][1,4]oxazepine-9-carbonitrile] | 491
8 | CC1OCCC1(C)C(=O)N1C[C@@H]2C[C@H]1c1cncc(C#N)c1O2 (stereo partly drawn) [Compound 1-59, (2S,5S)-4-(2,3-dimethyltetrahydrofuran-3-carbonyl)-2,3,4,5-tetrahydro-2,5-methanopyrido[3,4-f][1,4]oxazepine-9-carbonitrile] | 587
9 | CC1(C(=O)N2C[C@@H]3C[C@H]2c2cncc(C#N)c2O3)CCC(F)(F)CC1 [Compound 1-36, (2S,5S)-4-(4,4-difluoro-1-methylcyclohexane-1-carbonyl)-2,3,4,5-tetrahydro-2,5-methanopyrido[3,4-f][1,4]oxazepine-9-carbonitrile] | 973
10 | CC(C(=O)N1C[C@@H]2C[C@H]1c1cncc(C#N)c1O2)(C(F)F)C1CC1 (single isomer, unassigned) [Compound 1-89, (2S,5S)-4-(2-(R or S)-cyclopropyl-3,3-difluoro-2-methylpropanoyl)-2,3,4,5-tetrahydro-2,5-methanopyrido[3,4-f][1,4]oxazepine-9-carbonitrile] | 43
11 | N#Cc1cncc2c1O[C@H]1C[C@@H]2N(C(=O)C23CSC(C2)C3)C1 [Compound 1-47, (2S,5S)-4-(2-thiabicyclo[2.1.1]hexane-4-carbonyl)-2,3,4,5-tetrahydro-2,5-methanopyrido[3,4-f][1,4]oxazepine-9-carbonitrile] | 22
12 | N#Cc1cncc2c1O[C@H]1C[C@@H]2N(C(=O)C23CCCC2C3(F)F)C1 (single isomer, unassigned) [Compound 1-86, (2S,5S)-4-((1R,5S or 1S,5R)-6,6-difluorobicyclo[3.1.0]hexane-1-carbonyl)-2,3,4,5-tetrahydro-2,5-methanopyrido[3,4-f][1,4]oxazepine-9-carbonitrile] | 33
13 | N#Cc1ccnc(N2CCC(F)(C(=O)N3C[C@@H]4C[C@H]3c3cncc(C#N)c3O4)CC2)n1 [Compound 1-83, (2S,5S)-4-(1-(4-cyanopyrimidin-2-yl)-4-fluoropiperidine-4-carbonyl)-2,3,4,5-tetrahydro-2,5-methanopyrido[3,4-f][1,4]oxazepine-9-carbonitrile] | 30
14 | CC1(C(=O)N2C[C@@H]3C[C@H]2c2cncc(C#N)c2O3)CC1(F)F (single isomer, unassigned) [Compound 1-28, (2S,5S)-4-[(S or R)-2,2-difluoro-1-methylcyclopropane-1-carbonyl]-2,3,4,5-tetrahydro-2,5-methanopyrido[3,4-f][1,4]oxazepine-9-carbonitrile] | 201
15 | CCC1(C(=O)N2C[C@@H]3C[C@H]2c2cncc(C#N)c2O3)CC1 [Compound 1-74, (2S,5S)-4-(1-ethylcyclopropane-1-carbonyl)-2,3,4,5-tetrahydro-2,5-methanopyrido[3,4-f][1,4]oxazepine-9-carbonitrile] | 347

Now from value to compound:

Row | IC50 [nM] | SMILES
16 | 21 | Cc1ccc(C#Cc2cncc3c2O[C@H]2C[C@@H]3N(C(=O)C34CCC(F)(CC3)C4)C2)cc1 [Compound 2-103, (4-fluorobicyclo[2.2.1]heptan-1-yl)((2S,5S)-9-(p-tolylethynyl)-2,3-dihydro-2,5-methanopyrido[3,4-f][1,4]oxazepin-4(5H)-yl)methanone]
17 | 87 | N#CC12CCC(C(=O)N3C[C@@H]4C[C@H]3c3cncc(Cl)c3O4)(C1)C2 [Compound 2-26, 4-((2S,5S)-9-chloro-2,3,4,5-tetrahydro-2,5-methanopyrido[3,4-f][1,4]oxazepine-4-carbonyl)bicyclo[2.1.1] hexane-1-carbonitrile]
18 | 432 | C[C@@H]1C2CN(C(=O)C(C)(C)C(F)F)[C@H]1c1cncc(C#N)c1O2 (single isomer, unassigned) [Compound 5-3]
19 | 27 | CC(C)(C(=O)N1C[C@@H]2C[C@H]1c1cncc(C#Cc3cnc4ccnn4c3)c1O2)C(F)F [Compound 2-75, 3,3-difluoro-2,2-dimethyl-1-((2S,5S)-9-(pyrazolo[1,5-a]pyrimidin-6-ylethynyl)-2,3-dihydro-2,5-methanopyrido[3,4-f][1,4]oxazepin-4(5H)-yl)propan-1-one]
20 | 20 | O=C(N1C[C@@H]2C[C@H]1c1cncc(F)c1O2)C12CCC(C(F)(F)F)(CC1)C2 [Compound 2-14, ((2S,5S)-9-fluoro-2,3-dihydro-2,5-methanopyrido[3,4-f][1,4]oxazepin-4(5H)-yl)(4-(trifluoromethyl)bicyclo [2.2.1]heptan-1-yl)methanone]
21 | 65 | Cc1ccc(C#Cc2cncc3c2O[C@H]2C[C@@H]3N(C(=O)C(C)(C)C(F)F)C2)c(C)n1 [Compound 2-91, 1-((2S,5S)-9-((2,6-dimethylpyridin-3-yl)ethynyl)-2,3-dihydro-2,5-methanopyrido[3,4-f][1,4]oxazepin-4(5H)-yl)-3,3-difluoro-2,2-dimethylpropan-1-one]
22 | 57 | CC(F)(F)C1(C(=O)N2C[C@@H]3C[C@H]2c2cncc(Cl)c2O3)CCC1 [Compound 2-11, ((2S,5S)-9-chloro-2,3-dihydro-2,5-methanopyrido[3,4-f][1,4]oxazepin-4(5H)-yl)(1-(1,1-difluoroethyl)cyclobutyl) methanone]
23 | 18 | CC(C)Oc1ncc(C#Cc2cncc3c2O[C@H]2C[C@@H]3N(C(=O)C(C)(C)C(F)F)C2)cn1 [Compound 2-74, 3,3-difluoro-1-((2S,5S)-9-((2-isopropoxypyrimidin-5-yl)ethynyl)-2,3-dihydro-2,5-methanopyrido[3,4-f][1,4]oxazepin-4(5H)-yl)-2,2-dimethylpropan-1-one]
24 | 35 | CC(C)(C(=O)N1C[C@@H]2C[C@H]1c1cncc(C#Cc3ccc(OC(F)F)nc3)c1O2)C(F)F [Compound 2-88, 1-((2S,5S)-9-((6-(difluoromethoxy)pyridin-3-yl)ethynyl)-2,3-dihydro-2,5-methanopyrido[3,4-f][1,4]oxazepin-4(5H)-yl)-3,3-difluoro-2,2-dimethylpropan-1-one]
25 | 18 | CC(F)(F)C(C)(C)C(=O)N1C[C@@H]2C[C@H]1c1cncc(Cl)c1O2 [Compound 2-5, 1-[(2S,5S)-9-chloro-2,3-dihydro-2,5-methanopyrido[3,4-f][1,4]oxazepin-4(5H)-yl]-3,3-difluoro-2,2-dimethylbutan-1-one]
26 | 34 | CC(C)(C(=O)N1C[C@@H]2C[C@H]1c1cncc(C#Cc3ccccc3F)c1O2)C(F)F [Compound 2-44, 3,3-difluoro-1-((2S,5S)-9-((2-fluorophenyl)ethynyl)-2,3-dihydro-2,5-methanopyrido[3,4-f][1,4]oxazepin-4(5H)-yl)-2,2-dimethylpropan-1-one]
27 | 24 | CC(C)(C(=O)N1C[C@@H]2C[C@H]1c1cncc(C#Cc3cnc(C4CC4)nc3)c1O2)C(F)F [Compound 2-80, 1-((2S,5S)-9-((2-cyclopropylpyrimidin-5-yl)ethynyl)-2,3-dihydro-2,5-methanopyrido[3,4-f][1,4]oxazepin-4(5H)-yl)-3,3-difluoro-2,2-dimethylpropan-1-one]
